According to patent US10508118B2, “Pyrimidopyrrole compounds, method for preparing the same, pharmaceutical compositions comprising the same and uses thereof” (Xiamen University, priority 2015, dated 2019):
Like-named read-outs stand apart in the source and are kept apart here.

Tests used:
Type in all cases: cell-based
EML4-ALK-BaF3 = molecular target: T1, EML4-ALK-BaF3 (Homo sapiens, UniProt Q9UM73); assay: Growth inhibition of EML4-ALK transformed BaF3 cells (MTS); conditions: EML4-ALK-BaF3 cells, 48 hours, MTS
T1 construct: expressed in transfected cells; host or cells: Ba/F3 cells; the other entry of the earlier key: EML4 (Q9HC35, Echinoderm microtubule-associated protein-like 4)
Method in brief: (§1)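 Ba/F3 cells (2×10^4/well) in DMEM or RPMI1640 with 10% FBS exposed to 8 compound concentrations (top 10 μM, 1/3 serial dilution, 0.1% DMSO) for 48 h at 37 °C, 5% CO2. Viability by MTS/PES, 1-4 h, OD 490 nm; triplicates. IC50 fitted from inhibition rate.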

EML4-ALK (L1196M)-BaF3 = molecular target: T2, EML4-ALK (L1196M)-BaF3 (Homo sapiens, UniProt Q9UM73, L1196M); assay: Growth inhibition of EML4-ALK (L1196M) transformed BaF3 cells (MTS); conditions: 48 hours
T2 construct: expressed in transfected cells; host or cells: Ba/F3 cells; the other entry of the earlier key: EML4 (Q9HC35, Echinoderm microtubule-associated protein-like 4)
Method in brief: as §1

NPM-ALK-BaF3 = molecular target: T3, NPM-ALK-BaF3 (Homo sapiens, UniProt Q9UM73); assay: Growth inhibition of NPM-ALK transformed BaF3 cells (MTS); conditions: 48 hours
T3 construct: expressed in transfected cells; host or cells: Ba/F3 cells; the other entry of the earlier key: NPM1 (P06748, Nucleophosmin)
Method in brief: (§2)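 MTS absorbance at 490 nm, measured 1–4 h after reagent addition, reports growth after 48 h compound exposure (37 °C, 5% CO2) of 2×10^4 cells/well. Eight 1/3-step concentrations from a 10 μM top, 0.1% DMSO; triplicate inhibition relative to vehicle and blank gives IC50.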

wild type BaF3 = assay: Growth inhibition of wild type BaF3 cells (broad-spectrum toxicity); conditions: Mus musculus, BaF3, 48 h, MTS
Method in brief: as §2

[1] = Table 11, read-out: EML4-ALK (L1196M) (IC50 nM)
[2] = Table 12, read-out: L1196M (IC50 nM)

Compound | IC50 (EML4-ALK-BaF3; Table 11) [nM] | IC50 (EML4-ALK (L1196M)-BaF3; [1]) [nM] | IC50 (NPM-ALK-BaF3; Table 11) [nM] | IC50 (wild type BaF3; Table 11) [nM] | IC50 (EML4-ALK-BaF3; Table 12) [nM] | IC50 (EML4-ALK (L1196M)-BaF3; [2]) [nM] | IC50 (NPM-ALK-BaF3; Table 12) [nM] | IC50 (wild type BaF3; Table 12) [nM]
COc1cc(N2CCN(C)CC2)ccc1Nc1nc(NCc2ccccc2SC)c2[nH]ccc2n1 [IL-1] | 1320 | 1620 | ~929 | ~2820 | – | – | – | –
COc1cc(N2CCN(C)CC2)ccc1Nc1nc(Nc2ccccc2S(C)(=O)=O)c2c(ccn2C)n1 [IIC-1] | – | – | – | – | 3530 | ~5890 | 5120 | ~8670
CNc1nc(Nc2ccc(S(N)(=O)=O)cc2)nc2cc[nH]c12 [IQ-4] | > 10000 | > 10000 | > 10000 | > 10000 | – | – | – | –
COC(=O)c1ccccc1Oc1nc(Nc2ccc(N3CCC(N4CCN(C)CC4)CC3)cc2OC)nc2ccn(C)c12 [IIN-2] | – | – | – | – | ~2590 | 2220 | 2330 | 5630
COC(=O)c1ccccc1Oc1nc(Nc2ccc(N3CCC(O)CC3)cc2)nc2ccn(C)c12 [IIN-3] | – | – | – | – | > 10000 | > 10000 | > 10000 | > 10000
CC(C)S(=O)(=O)c1ccccc1CNc1nc(Nc2ccc(S(N)(=O)=O)cc2)nc2ccn(C)c12 [IIL-4] | – | – | – | – | > 10000 | > 10000 | > 10000 | > 10000
COC(=O)c1sccc1Nc1nc(Nc2ccc(N3CCN(C)CC3)cc2OC)nc2cc[nH]c12 [IK-1] | ~2580 | 1550 | 1780 | 1820 | – | – | – | –
COC(=O)c1ccccc1Nc1nc(Nc2ccc(C(=O)N3CCC(N4CCN(C)CC4)CC3)cc2OC)nc2ccn(C)c12 [IIG-4] | – | – | – | – | ~1330 | 3950 | 4210 | 4870
COC(=O)c1ccccc1Sc1nc(Nc2ccc(N3CCC(N4CCN(C)CC4)CC3)cc2OC)nc2cc[nH]c12 [IU-2] | 4580 | 2670 | 4900 | ~8340 | – | – | – | –
COC(=O)c1ccccc1Nc1nc(Nc2ccc(C(=O)N3CCC(N4CCN(C)CC4)CC3)cc2OC)nc2cc[nH]c12 [IG-12] | 6500 | 4130 | 4080 | ~7740 | – | – | – | –
CNC(=O)c1ccccc1Nc1nc(Nc2ccc(N3CCC(N4CCN(C)CC4)CC3)cc2OC)nc2cc[nH]c12 [IJ-1] | 4270 | 3940 | 4660 | 5010 | – | – | – | –
CCOc1cc(N2CCC(O)CC2)ccc1Nc1nc(Nc2ccccc2C(=O)OC)c2[nH]ccc2n1 [IG-10] | 9800 | > 10000 | 19600 | > 10000 | – | – | – | –
Cn1ccc2nc(Nc3ccc(S(N)(=O)=O)cc3)nc(Nc3ccccc3S(C)(=O)=O)c21 [IIC-4] | – | – | – | – | > 10000 | 28200 | > 10000 | > 10000
COC(=O)c1ccccc1Oc1nc(Nc2ccc(N3CCN(C)CC3)cc2OC)nc2cc[nH]c12 [IV-1] | 6900 | 7310 | > 10000 | > 10000 | – | – | – | –
COC(=O)c1ccccc1Oc1nc(Nc2ccc(S(N)(=O)=O)cc2)nc2cc[nH]c12 [IV-4] | > 10000 | > 10000 | > 10000 | > 10000 | – | – | – | –
COc1cc(C2CCN(C)CC2)c(C)cc1Nc1nc(Nc2ccccc2S(=O)(=O)C(C)C)c2c(ccn2C)n1 [IID-9] | – | – | – | – | 2240 | ~2880 | 4740 | ~8300
CC(C)Sc1ccccc1Nc1nc(Nc2ccc(N3CCC(O)CC3)cc2)nc2ccn(C)c12 [IIB-3] | – | – | – | – | 489 | 917 | 653 | 1040
CNc1nc(Nc2ccc(C(=O)N3CCN(C)CC3)cc2OC)nc2cc[nH]c12 [IQ-6] | > 10000 | > 10000 | > 10000 | > 10000 | – | – | – | –
CN1CCN(c2ccc(Nc3nc(Nc4ccccc4S(C)(=O)=O)c4c(ccn4C)n3)cc2)CC1 [IIC-5] | – | – | – | – | ~3240 | 4410 | 3780 | ~7730
COC(=O)c1ccccc1Nc1nc(Nc2ccc(N3CCC(O)CC3)cc2OC(C)C)nc2cc[nH]c12 [IG-9] | > 10000 | > 10000 | > 10000 | > 10000 | – | – | – | –
CS(=O)(=O)c1ccccc1Nc1nc(Nc2ccc(S(N)(=O)=O)cc2)nc2cc[nH]c12 [IC-4] | > 10000 | > 10000 | > 10000 | > 10000 | – | – | – | –
COC(=O)c1ccccc1Nc1nc(Nc2ccc(N3CCC(N4CCN(C)CC4)CC3)cc2OC)nc2cc[nH]c12 [IG-2] | 1200 | 1190 | 1430 | 1800 | – | – | – | –
